Measurements published in patent publication US9782394B2, “Inhibitors for ERG oncogene positive cancers” (The Henry M. Jackson Foundation for the Advancement of …, priority 2014, dated 2017).
pIC50: −log10 of the molar value.

What was measured:
VCaP cells = test: Cell growth inhibition, VCaP; type: cell-based; details: for inhibition of cell growth: VCaP cells in culture, 1 μM and 10 μM
Method: (§1) 48 hours following plating of cells, the appropriate test compound is added to each well of the tissue culture dish at a predetermined concentration. The medium was replenished every 24 hours with fresh growth medium containing the same concentration of the same test compound for indicated period of the cell growth inhibition assay. Percent cell growth inhibition was calculated using a hemocytometer for estimating cell density in each of the test wells of the tissue culture dish and trypan blue dye exclusion microscopy and photography to estimate the fraction of viable cells in each test well.
(§2) The protein inhibition studies described above indicate that ERGi-USU is a selective inhibitor of ERG expression. To investigate whether ERGi-USU selectively arrested the growth of ERG positive cancer cells without arresting the growth of ERG negative cancer cells, a cell growth inhibition study was carried out using the following cancer and normal cell lines: ERG positive cancer cells (VCaP, COLO320, MOLT-4 and KG-1) cancer cells, ERG negative cancer cells (LNCaP, MDA PCa2b and LAPC4) cancer cells, normal prostate RWPE-1 and BPH-1 cells and normal endothelial HUVEC cells. Each cell line was cultured to achieve cells in logarithmic growth and these cells were then plated in 10 cm wells of a tissue culture dishes at a cell density of 2×10^6 cells per well. The plated cells were contacted with 0, 0.1, 0.5, 1.0, 5.0, and 10 μM concentrations of ERGi-USU for a period of 2, 4, 6 and 8 days. At the end of each time period, cells are recovered from the test plate, washed and the cell density and viability determined using a hemocytometer and trypan blue dye staining method. Cell growth inhibition was expressed as a graph correlating cell number to the concentration of ERGi-USU.
(§3) FIG. 4 illustrates the results of cell growth inhibition studies that were used to calculate the concentration of ERGi-USU needed for inhibiting 50% of the growth (IC50) of the cells mentioned above. As illustrated by this figure, ERGi-USU was a potent inhibitor of the growth of ERG positive cancer cells in culture.

LNCaP cells = test: Cell growth inhibition, LNCaP; type: cell-based; details: for inhibition of cell growth: ERG negative LNCaP cells, 1 μM and 10 μM
Method: as §1, §2, §3

LAPC4 cells = test: Cell growth inhibition, LAPC4; type: cell-based; details: Homo sapiens; LAPC4, ERG negative metastatic prostate cancer; read-out: Cell growth inhibition (ERGi-USU: IC50)
Method: as §1
(§4) The protein inhibition studies described above indicate that ERGi-USU is a selective inhibitor of ERG expression. […] At the end of each time period, cells are recovered from the test plate, washed and the cell density and viability determined using a hemocytometer and trypan blue dye staining method. Cell growth inhibition was expressed as a graph correlating cell number to the concentration of ERGi-USU. […]

AR = test: Western blot analysis of AR expression in prostate cancer cells; type: cell-based; details: 0.1-10 μM
Method: (§5) Cultured cells were treated at specific dosages with each of the test ERG inhibitors. Following incubation of the treated cells for indicated time period, cells were lysed using Mammalian Protein Extraction Reagent (M-PER; Pierce, Rockford, Ill.) containing a protease inhibitor cocktail and phosphatase inhibitor cocktails I & III (Sigma, St Louis, Mo.). Cell lysates containing 50 μg of total protein were electrophoresed through 4-12% Bis-Tris Gel (Invitrogen, Carlsbad, Calif.) and the cellular proteins were transferred to PVDF membrane (Invitrogen, Carlsbad, Calif.). Membranes were incubated at 4° C. for 12 hours with primary antibodies for AR, PSA, GAPDH, α-Tubulin, apoptosis markers and cell cycle regulators. Following exposure to primary antibodies, the membranes were washed with buffer (three times, 5 minutes each at room temperature) followed by incubation with relevant secondary antibodies for 1 hour at 24° C. Finally, the membranes were washed with buffer and developed using the ECL Western blot detection reagent (GE Health Care, Buckinghamshire, UK).
(§6) Briefly, ERG positive VCaP cells and ERG negative LNCaP, MDA PCa2b and LAPC4 cells in logarithmic growth were plated in 10 cm tissue culture dish at a cell density of 2×10^6 cells per dish. The plated cells were contacted with 0, 0.1, 0.5, 1.0, 5.0, and 10 μM concentrations of ERGi-USU for a period of 48 hours. Cells from each dish were then processed for Western blot analysis and alterations in the expression of ERG protein were monitored.

BPH-1 cells = test: Cell growth inhibition, BPH-1; type: cell-based; details: Homo sapiens; BPH-1, normal prostate; read-out: Cell growth inhibition (ERGi-USU: IC50)
Method: as §1, §4

MDA PCa2b cells = test: Cell growth inhibition, MDA PCa2b; type: cell-based; details: MDA-PCa-2b, ERG negative prostate cancer, read-out: Cell growth inhibition (ERGi-USU: IC50)
Method: as §1, §4

HUVEC cells = test: Cell growth inhibition, HUVEC; type: cell-based; details: Homo sapiens, ERG positive normal endothelial, read-out: Cell growth inhibition (ERGi-USU: IC50)
Method: as §1, §4

ERG protein = molecular target: T1, ERG protein (Homo sapiens, UniProt P11308); test: In-cell Western primary screen for inhibitors of ERG expression in VCaP cells; type: cell-based; details: single 1 μM dose, 48 hours, duplicate screen
T1 construct: contacting a TMPRSS2-ERG fusion positive prostate cancer (VCaP) cell line with a fixed concentration of each compound; host or cells: VCaP
T1 sequence (P11308 33-479 limits assumed): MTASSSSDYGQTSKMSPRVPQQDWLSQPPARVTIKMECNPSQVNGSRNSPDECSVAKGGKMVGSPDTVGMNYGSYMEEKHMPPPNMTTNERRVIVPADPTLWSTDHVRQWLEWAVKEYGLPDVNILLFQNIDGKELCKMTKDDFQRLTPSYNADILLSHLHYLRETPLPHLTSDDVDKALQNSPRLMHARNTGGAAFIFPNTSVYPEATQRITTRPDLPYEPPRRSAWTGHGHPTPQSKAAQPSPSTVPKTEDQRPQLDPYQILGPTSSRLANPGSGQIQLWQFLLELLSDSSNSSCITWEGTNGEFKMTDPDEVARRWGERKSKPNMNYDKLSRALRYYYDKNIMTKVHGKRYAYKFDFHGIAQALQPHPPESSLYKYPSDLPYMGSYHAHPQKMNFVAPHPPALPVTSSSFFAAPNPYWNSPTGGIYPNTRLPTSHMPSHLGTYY
Source text: To identify ERG specific small molecule inhibitors, the present inventors screened a library of small molecule compounds, by contacting a TMPRSS2-ERG fusion positive prostate cancer (VCaP) cell line with a fixed concentration of each compound in the small molecule library. ERG protein expression was monitored using an In-cell Western blot assay (LI-COR Biosciences, Lincoln, Nebr.), using a highly specific ERG monoclonal antibody (CPDR ERG-mAb; 9FY) for detection. See Furusato et al., Prostate Cancer Prostatic Dis., 13:228-372 (2010); Mohamed et al., J. Cancer, 1:197-208, (2010); Miettinen et al., Am. J. Surg Pathol., 35:432-41 (2011); and U.S. patent publication No. 2012/0135018A1.
The TMPRSS2-ERG fusion positive prostate cancer cell line, VCaP (ATCC), was used to identify small molecule inhibitors of ERG expression. […] The inhibition of ERG expression was evaluated by an In-cell Western blot assay (LI-COR Biosciences, Lincoln, Nebr.) using the ERG specific CPDR ERG-MAb as further described below. […]
Inhibition of ERG expression by the test compounds was determined by an In-cell Western assay (LI-COR Biosciences, Lincoln, Nebr.). […]
The tissue culture plates were imaged on a Li-Cor Odyssey Infrared Imaging System and infrared signals were measured to provide values for ERG expression and cell number via DNA staining. […]

VCaP xenograft tumors = test: VCaP xenograft tumor growth inhibition in nude mice; type: in vivo; details: male nude mice, 150 mg/kg intraperitoneally 3 times per week, versus vehicle control and 100 mg/kg
Method: Male athymic nude mice 6-8 weeks old and weighing 27 to 30 g were purchased from Charles River Laboratories. ERG harboring prostate cancer cells (VCaP) were trypsinized and washed twice with ice-cold PBS, and resuspended in ice-cold 50% matrigel in serum-free DMEM medium. A total of 4×10^6 cells/0.1 ml/mouse were subcutaneously injected into lower right dorsal flank of the mice. Prior to injection, mice were anesthetized with inhalation anesthesia (isoflurane). Tumor growth was monitored weekly after injection. Three weeks later when tumors were palpable mice were randomly separated into 2 experimental groups and one control group of 7 mice in each group. In the treatment groups mice were injected intraperitoneally (I.P) with 100 mg/kg of ERGi-USU or 150 mg/kg of ERGi-USU while the control group were injected with vehicle (1:1 [v/v], DMSO/PEG300) only. Growth in tumor volume was recorded weekly by digital caliper measurements and tumor volumes calculated using the ½ (L×W^2) formula, where L=length of tumor and W=width. Tumor volumes were compared between treated and control groups with repeated measurements and statistical significance of the results between the groups computed using students t-test and p values calculated.
Male nude mice were injected with about 4×10^6 VCaP cells and tumor growth was monitored. […] Tumor growth was monitored weekly.

COLO320 cells = test: Cell growth inhibition, COLO320; type: cell-based; details: Homo sapiens, COLO 320; COLO320, ERG positive colon adenocarcinoma; read-out: Cell growth inhibition (ERGi-USU: IC50)
Method: as §1, §4

PSA = test: Western blot analysis of PSA expression in prostate cancer cells; type: cell-based; details: 0.1-10 μM
Method: as §5, §6

ERG mRNA = test: Quantitative RT-PCR analysis of ERG transcripts in VCaP cells; type: cell-based, human; details: 1 μM, 24 hours
Method: The ERG inhibitors identified by the primary screen were used in a quantitative RT-PCR assay to evaluate their ability to inhibit ERG mRNA expression. Briefly, VCaP cells were treated at a concentration of 1 μM with each of the ten compounds for 24 hours. Following incubation with the test compounds the cells are lysed and the total RNA isolated. 200 ng of the total RNA was used for analysis of ERG transcripts by qRT-PCR using a pair of ERG primers specific for the coding sequence of tERG for analysis.

RWPE-1 cells = test: Cell growth inhibition, RWPE-1; type: cell-based; details: Homo sapiens; RWPE-1, normal prostate; read-out: Cell growth inhibition (ERGi-USU: IC50)
Method: as §1, §4

KG-1 cells = test: Cell growth inhibition, KG-1; type: cell-based; details: Homo sapiens; KG-1, ERG positive myeloid leukemia; read-out: Cell growth inhibition (ERGi-USU: IC50)
Method: as §1, §4

MOLT-4 cells = test: Cell growth inhibition, MOLT-4; type: cell-based; details: Homo sapiens; MOLT-4, ERG positive acute lymphoblastic leukemia; read-out: Cell growth inhibition (ERGi-USU: IC50)
Method: as §1, §4

[1] = AR positive/ERG negative LNCaP, MDA PCa2b and LAPC4 cells, 48 hours

With `Oc1ccc2ccccc2c1/N=N/c1ccccn1` [ED-1] the “inhibition of cell growth” value (VCaP cells) was “inhibited the growth of VCaP prostate cancer cells” and the “inhibition of cell growth” value (LNCaP cells) was “no measurable inhibitory effect”.
`Nc1c(O)ccc2ccccc12` [ED-2] was tested, and the “inhibition of cell growth” value (VCaP cells) was “inhibited the growth of VCaP prostate cancer cells” and the “inhibition of cell growth” value (LNCaP cells) was “no measurable inhibitory effect”.
In the case of `NC(c1ccccc1)c1c(O)ccc2ccccc12` (stereo not drawn) [ED-3], the “inhibition of cell growth” value (VCaP cells) was “inhibited the growth of VCaP prostate cancer cells” and the “inhibition of cell growth” value (LNCaP cells) was “no measurable inhibitory effect”.
For `Oc1ccc2ccccc2c1/N=N/c1nccs1` [ERGi-USU, 1-(thiazol-2-yldiazenyl)naphthalene-2-ol], the pIC50 (VCaP cells; Homo sapiens, VCaP, ERG positive metastatic prostate cancer, read-out: Cell growth inhibition (ERGi-USU: IC50)) was 6.52, the pIC50 (LAPC4 cells) was < 5.00 and the “inhibition of AR protein expression” value (AR; [1]) was “does not inhibit”. The “inhibition of AR protein expression” value (AR; VCaP cells) was “inhibits expression of PSA, and AR proteins”, the pIC50 (LNCaP cells; Homo sapiens, LNCaP, ERG negative metastatic prostate cancer, read-out: Cell growth inhibition (ERGi-USU: IC50)) was < 5.00 and the pIC50 (BPH-1 cells) was < 5.00. The pIC50 (MDA PCa2b cells) was < 5.00, the pIC50 (HUVEC cells) was < 5.00 and the “inhibition of ERG protein expression (In-cell Western, normalized by cell number)” value (ERG protein) was “inhibitors of ERG protein expression”. The tumor volume (VCaP xenograft tumors) was “exhibited the smallest volumes”, the pIC50 (COLO320 cells) was 6.52 and the “inhibition of PSA protein expression” value (PSA; [1]) was “does not inhibit”. The “inhibition of PSA protein expression” value (PSA; VCaP cells) was “inhibits expression of PSA, and AR proteins”, the “inhibition of ERG mRNA expression (qRT-PCR)” value (“inhibition … (qRT-PCR)” for short) (ERG mRNA) was “inhibitors of ERG-mRNA expression” and the pIC50 (RWPE-1 cells) was < 5.00. It also gave a pIC50 (KG-1 cells) of 6.70 and a pIC50 (MOLT-4 cells) of 7.30.
For `Cc1[nH]ccc2c1[nH]c1cc(=O)ccc12` [NSC72292], the “inhibition … (qRT-PCR)” value (ERG mRNA) was “inhibitors of ERG-mRNA expression”.
For `Oc1ccc2ccccc2c1/N=N/c1nccs1` [NSC99629, reference compound], the “inhibition of AR protein expression” value (AR; VCaP cells) was “No appreciable inhibition”, the “inhibition of PSA protein expression” value (PSA; VCaP cells) was “No appreciable inhibition” and the “inhibition … (qRT-PCR)” value (ERG mRNA) was “inhibitors of ERG-mRNA expression”.
